Where a name gives a salt, the structure may show the parent alone.
Tests used:
[1] = tested on: HEK293 FOP control reporter cell line; experiment: HEK293 FOP Assay (FOP control vector luciferase reporter); assay type: cell-based; details: Homo sapiens
Procedure, shortened: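 Stable HEK293 line carrying the FOP vector (randomized, non-functional TCF sites; Geneticin-selected) was run in parallel with the TOP line. Cells were plated 24 h ahead at 10000/well and given recombinant human Wnt-3a at 2500–5 ng/ml. Compounds were tested at 50 μM–15 nM (3.16-fold steps) in CAFTY buffer, pH 7.4, with 2 mM Ca2+ and 0.01% BSA.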

TNKS1 = target: T1, TNKS1 (Homo sapiens, UniProt O95271); experiment: Modified TNKS1 Assay 3 (BPS kit #80573, biotin-NAD+, 96 well); assay type: biochemical; details: human TNKS1, BPS kit #80573, 96 well
T1 sequence (O95271 1-1327): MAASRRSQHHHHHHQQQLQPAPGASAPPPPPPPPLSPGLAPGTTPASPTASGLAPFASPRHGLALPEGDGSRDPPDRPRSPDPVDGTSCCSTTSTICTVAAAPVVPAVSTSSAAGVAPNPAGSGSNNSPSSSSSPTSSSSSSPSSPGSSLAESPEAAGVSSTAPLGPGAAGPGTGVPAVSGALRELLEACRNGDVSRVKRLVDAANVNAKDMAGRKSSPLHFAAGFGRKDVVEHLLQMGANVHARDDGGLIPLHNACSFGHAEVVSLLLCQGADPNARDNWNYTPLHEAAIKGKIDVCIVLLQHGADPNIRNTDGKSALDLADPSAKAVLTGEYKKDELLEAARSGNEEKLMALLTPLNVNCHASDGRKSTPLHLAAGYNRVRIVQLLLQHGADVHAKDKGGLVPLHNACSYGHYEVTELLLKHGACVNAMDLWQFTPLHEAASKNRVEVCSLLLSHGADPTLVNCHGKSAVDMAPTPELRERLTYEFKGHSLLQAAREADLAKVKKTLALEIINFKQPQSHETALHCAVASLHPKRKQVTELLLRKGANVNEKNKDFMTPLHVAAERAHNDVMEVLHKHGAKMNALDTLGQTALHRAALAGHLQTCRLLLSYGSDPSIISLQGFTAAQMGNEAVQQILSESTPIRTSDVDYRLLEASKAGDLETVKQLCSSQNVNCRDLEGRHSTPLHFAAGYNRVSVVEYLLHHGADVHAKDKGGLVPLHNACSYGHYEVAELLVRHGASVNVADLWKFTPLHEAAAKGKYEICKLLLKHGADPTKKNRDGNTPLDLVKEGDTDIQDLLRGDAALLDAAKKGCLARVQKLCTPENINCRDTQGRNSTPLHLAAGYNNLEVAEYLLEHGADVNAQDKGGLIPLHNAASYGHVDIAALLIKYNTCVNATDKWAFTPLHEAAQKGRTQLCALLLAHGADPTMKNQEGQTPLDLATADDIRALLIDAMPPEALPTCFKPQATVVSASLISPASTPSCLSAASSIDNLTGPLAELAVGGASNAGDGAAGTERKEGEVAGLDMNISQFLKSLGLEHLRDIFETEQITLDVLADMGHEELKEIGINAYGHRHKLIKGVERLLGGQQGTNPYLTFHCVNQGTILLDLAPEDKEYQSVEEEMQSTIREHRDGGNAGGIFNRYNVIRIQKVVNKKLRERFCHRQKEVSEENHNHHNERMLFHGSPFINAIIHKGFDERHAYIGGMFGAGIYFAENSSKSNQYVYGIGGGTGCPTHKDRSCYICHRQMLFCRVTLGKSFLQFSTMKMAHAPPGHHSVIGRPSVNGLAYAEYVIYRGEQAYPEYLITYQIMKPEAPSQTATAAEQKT
Procedure, shortened: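 Chemiluminescent assay of TNKS1-catalysed ribosylation of a protein substrate with biotin-labelled NAD+, detected via streptavidin-HRP; run per kit protocol. Inhibition lowers the signal, and IC50 is the compound concentration halving the normalised readout.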

[2] = HEK293 FOP control reporter cell line, 16 hours incubation, compound dilution series 50 μM to 15 nM
[3] = HEK293 FOP control reporter cells, 16 hours, luciferase, dilution series from 50 μM

| Structure (SMILES) | IC50 (TNKS1) [µM] | IC50 [1, 2] [µM] | IC50 [1, 3] [µM] |
| --- | --- | --- | --- |
| CCN1CCC[C@H]1CNC(=O)c1nc[nH]c1C(=O)Nc1ccc(NC(=O)c2ccc(F)cc2Cl)cc1 [Example 404, N^5-{4-[(2-chloro-4-fluorobenzoyl)amino]phenyl}-N^4-{[(2S)-1-ethylpyrrolidin-2-yl]methyl}-1H-imidazole-4,5-dicarboxamide] | 0.001 | 29 | – |
| CC(C)[C@@H](C)NC(=O)c1[nH]cnc1C(=O)Nc1ccc(NC(=O)c2ccc(F)cc2Cl)cc1 [Example 134, N^4-{4-[(2-chloro-4-fluorobenzoyl)amino]phenyl}-N^5-[(2R)-3-methylbutan-2-yl]-1H-imidazole-4,5-dicarboxamide] | 0.36 | 6.3 | – |
| COc1cc(NC(=O)c2[nH]cnc2C(=O)NCCN2CCCCC2)ccc1NC(=O)c1ccccc1Cl [Example 101, N^5-{4-[(2-chlorobenzoyl)amino]-3-methoxyphenyl}-N^4-[2-(piperidin-1-yl)ethyl]-1H-imidazole-4,5-dicarboxamide] | 0.04 | 29 | – |
| CC1CCCN(CCNC(=O)c2[nH]cnc2C(=O)Nc2ccc(NC(=O)c3ccccc3Cl)cc2)C1 (stereo not drawn) [Example 210, N^4-{4-[(2-chlorobenzoyl)amino]phenyl}-N^5-[2-(3-methylpiperidin-1-yl)ethyl]-1H-imidazole-4,5-dicarboxamide] | 0.02 | 24 | – |
| CNC(=O)c1[nH]c(C)nc1C(=O)Nc1ccc(NC(=O)c2ccc(F)cc2Cl)cc1 [Example 65, N^4-{4-[(2-chloro-4-fluorobenzoyl)amino]phenyl}-N^5,2-dimethyl-1H-imidazole-4,5-dicarboxamide] | 0.16 | 9.5 | – |
| CNC(=O)c1nc[nH]c1C(=O)Nc1ccc(NC(=O)c2ccccc2Br)cc1 [Example 37, N^5-{4-[(2-bromobenzoyl)amino]phenyl}-N^4-methyl-1H-imidazole-4,5-dicarboxamide] | 0.33 | 20 | 20 |
| CC1CCN(CCCNC(=O)c2nc[nH]c2C(=O)Nc2ccc(NC(=O)c3ccc(F)cc3Cl)cc2)CC1 [Example 400, N^5-{4-[(2-chloro-4-fluorobenzoyl)amino]phenyl}-N^4-[3-(4-methylpiperidin-1-yl)propyl]-1H-imidazole-4,5-dicarboxamide] | 0.02 | 13 | – |
| O=C(Nc1ccc(NC(=O)c2nc[nH]c2C(=O)NCCN2CCC[C@@H](F)C2)cc1)c1ccc(F)cc1Cl [Example 277, N^4-{4-[(2-chloro-4-fluorobenzoyl)amino]phenyl}-N^5-{2-[(3R)-3-fluoropiperidin-1-yl]ethyl}-1H-imidazole-4,5-dicarboxamide] | 0.07 | 36 | – |
| C[C@H]1CCCCN1CCNC(=O)c1[nH]cnc1C(=O)Nc1ccc(NC(=O)c2ccc(F)cc2Cl)cc1 [Example 266, N^4-{4-[(2-chloro-4-fluorobenzoyl)amino]phenyl}-N^5-{2-[(25)-2-methylpiperidin-1-yl]ethyl}-1H-imidazole-4,5-dicarboxamide formic acid salt] | 0.02 | 20 | – |
| O=C(Nc1ccc(NC(=O)c2nc[nH]c2C(=O)N2CCC2)cc1)c1ccc(F)cc1Cl [Example 142, 5-(azetidin-1-ylcarbonyl)-N-{4-[(2-chloro-4-fluorobenzoyl)amino]phenyl}-1H-imidazole-4-carboxamide] | 0.19 | – | – |
| O=C(Nc1ccc(NC(=O)c2nc[nH]c2C(=O)NCC2CC2)cc1)c1ccc(F)cc1Cl [Example 128, N^4-{4-[(2-chloro-4-fluorobenzoyl)amino]phenyl}-N^5-(cyclopropylmethyl)-1H-imidazole-4,5-dicarboxamide] | > 0.5 | – | – |
| O=C(Nc1ccc(NC(=O)c2[nH]cnc2C(=O)N2CC(F)C2)cc1)c1cc(F)c(F)cc1Cl [Example 47, N-{4-[(2-chloro-4,5-difluorobenzoyl)amino]phenyl}-4-[(3-fluoroazetidin-1-yl)carbonyl]-1H-imidazole-5-carboxamide] | > 0.5 | – | – |
| CN1CCC(CNC(=O)c2nc[nH]c2C(=O)Nc2ccc(NC(=O)c3ccc(F)cc3Cl)cc2)C1 (stereo not drawn) [Example 407, N^5-{4-[(2-chloro-4-fluorobenzoyl)amino]phenyl}-N^4-[(1-methylpyrrolidin-3-yl)methyl]-1H-imidazole-4,5-dicarboxamide] | 0.01 | – | – |

More lines, main results first:

| IC50 (TNKS1) [µM] | Structure (SMILES) | IC50 [1, 2] [µM] | IC50 [1, 3] [µM] |
| --- | --- | --- | --- |
| 0.22 | O=C(Nc1ccc(NC(=O)c2ocnc2C(=O)NCCN2CC[C@@H](F)C2)cc1)c1ccc(F)cc1Cl [Example 222, N^5-{4-[(2-chloro-4-fluorobenzoyl)amino]phenyl}-N^4-{2-[(3R)-3-fluoropyrrolidin-1-yl]ethyl}-1,3-oxazole-4,5-dicarboxamide] | 23 | – |
| 0.06 | COC(=O)c1nc[nH]c1C(=O)Nc1ccc(NC(=O)c2ccc(F)cc2Cl)cc1 [Example 13, Methyl 5-({4-[(2-chloro-4-fluorobenzoyl)amino]phenyl}carbamoyl)-1H-imidazole-4-carboxylate] | 25 | 25 |
| 0.07 | O=C(Nc1ccc(NC(=O)c2[nH]cnc2C(=O)NCCN2CCCCC2)cc1)c1cc(OC(F)(F)F)ccc1Br [Example 63, N^5-(4-{[2-bromo-5-(trifluoromethoxy)benzoyl]amino}phenyl)-N^4-[2-(piperidin-1-yl)ethyl]-1H-imidazole-4,5-dicarboxamide] | 11 | – |
| 0.0009 | CCN1CCCC1CNC(=O)c1nc[nH]c1C(=O)Nc1ccc(NC(=O)c2ccc(F)cc2Cl)cc1 (stereo not drawn) [Example 390, N^5-{4-[(2-chloro-4-fluorobenzoyl)amino]phenyl}-N^4-[(1-ethylpyrrolidin-2-yl)methyl]-1H-imidazole-4,5-dicarboxamide] | 18 | – |
| 0.13 | CN(C)CCNC(=O)c1ncoc1C(=O)Nc1ccc(NC(=O)c2ccc(F)cc2Cl)cc1 [Example 31, N^5-{4-[(2-chloro-4-fluorobenzoyl)amino]phenyl}-N^4-[2-(dimethylamino)ethyl]-1,3-oxazole-4,5-dicarboxamide] | – | ≥ 50 |
| 0.02 | O=C(Nc1ccc(NC(=O)c2nc[nH]c2C(=O)NCCN2CCCC2)cc1)c1ccc(F)cc1Cl [Example 228, N^4-{4-[(2-chloro-4-fluorobenzoyl)amino]phenyl}-N^5-[2-(pyrrolidin-1-yl)ethyl]-1H-imidazole-4,5-dicarboxamide] | – | – |
| > 0.5 | O=C(Nc1ccc(NC(=O)c2[nH]cnc2C(=O)N2CC(F)C2)cc1)c1ccc(F)cc1Cl [Example 41, N-{4-[(2-chloro-4-fluorobenzoyl)amino]phenyl}-4-[(3-fluoroazetidin-1-yl)carbonyl]-1H-imidazole-5-carboxamide] | – | – |
| > 0.5 | O=C(Nc1ccc(NC(=O)c2nc[nH]c2C(=O)NCCO)cc1)c1ccc(F)cc1Cl [Example 132, N^4-{4-[(2-chloro-4-fluorobenzoyl)amino]phenyl}-N^5-(2-hydroxyethyl)-1H-imidazole-4,5-dicarboxamide] | – | – |
| 0.29 | O=C(Nc1ccc(NC(=O)c2nc[nH]c2C(=O)NCC(F)F)cc1)c1ccc(F)cc1Cl [Example 139, N^4-{4-[(2-chloro-4-fluorobenzoyl)amino]phenyl}-N^5-(2,2-difluoroethyl)-1H-imidazole-4,5-dicarboxamide] | – | – |
| > 0.5 | O=C(Nc1ccc(NC(=O)c2nc[nH]c2C(=O)N2CC3(COC3)C2)cc1)c1ccc(F)cc1Cl [Example 145, N-{4-[(2-chloro-4-fluorobenzoyl)amino]phenyl}-5-(2-oxa-6-azaspiro[3.3]hept-6-ylcarbonyl)-1H-imidazole-4-carboxamide] | – | – |

Source: patent US9884063B2, “Amido-substituted azole compounds” (Bayer Pharma Aktiengesellschaft, priority 2014, dated 2018)
